Test system: 855422-203-R-J1-PDC complex spheroid viability
Test: Anticancer human tumor 855422-203-R-J1-PDC patient-derived bladder carcinoma cell line growth inhibition
Settings: for IC50: curve of first compound; for viability, T/C: stronger effect = lower value
Method in brief: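 Drug combinations with the LSD1 inhibitor iadademstat tested on tumor cells co-cultured as spheroids with endothelial cells and mesenchymal stem cells. Concentrations descended in half-log increments from clinical Cmax or 10 microM.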

[1] = second compound 0.1 µM, first compound 0.00949 µM
[2] = second compound 0.1 µM, first compound 0.03 µM
[3] = second compound 0.1 µM, first compound 0.0949 µM
[4] = second compound 0.1 µM, first compound 0.3 µM
[5] = second compound 0.316 µM, first compound 0.00949 µM
[6] = second compound 0.316 µM, first compound 0.03 µM
[7] = second compound 0.316 µM, first compound 0.0949 µM
[8] = second compound 0.316 µM, first compound 0.3 µM
[9] = second compound 1 µM, first compound 0.00949 µM
[10] = second compound 1 µM, first compound 0.03 µM
[11] = second compound 1 µM, first compound 0.0949 µM
[12] = second compound 1 µM, first compound 0.3 µM
[13] = second compound 3.16 µM, first compound 0.00949 µM
[14] = second compound 3.16 µM, first compound 0.03 µM
[15] = second compound 3.16 µM, first compound 0.0949 µM
[16] = second compound 3.16 µM, first compound 0.3 µM
[17] = second compound 10 µM, first compound 0.00949 µM
[18] = second compound 10 µM, first compound 0.03 µM
[19] = second compound 10 µM, first compound 0.0949 µM
[20] = second compound 10 µM, first compound 0.3 µM
[21] = second compound 0.1 µM, first compound 0.0316 µM
[22] = second compound 0.1 µM, first compound 0.1 µM
[23] = second compound 0.1 µM, first compound 0.316 µM
[24] = second compound 0.1 µM, first compound 1 µM
[25] = second compound 0.316 µM, first compound 0.0316 µM
[26] = second compound 0.316 µM, first compound 0.1 µM
[27] = second compound 0.316 µM, first compound 0.316 µM
[28] = second compound 0.316 µM, first compound 1 µM
[29] = second compound 1 µM, first compound 0.0316 µM
[30] = second compound 1 µM, first compound 0.1 µM
[31] = second compound 1 µM, first compound 0.316 µM
[32] = second compound 1 µM, first compound 1 µM
[33] = second compound 3.16 µM, first compound 0.0316 µM
[34] = second compound 3.16 µM, first compound 0.1 µM
[35] = second compound 3.16 µM, first compound 0.316 µM
[36] = second compound 3.16 µM, first compound 1 µM
[37] = second compound 10 µM, first compound 0.0316 µM
[38] = second compound 10 µM, first compound 0.1 µM
[39] = second compound 10 µM, first compound 0.316 µM
[40] = second compound 10 µM, first compound 1 µM
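Note: drug exposure lasted 7 days starting on day 3 after seeding.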
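Throughout, for viability, T/C: luminescence viability as percent of DMSO vehicle wells = 100%.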

Nc1ncn(C2CC(O)C(CO)S2)c(=O)n1 (stereo not given) + NC1CCC(NC2CC2c2ccccc2)CC1
IC50 (second compound 0.1 µM): > 300 nM | IC50 (second compound 0.316 µM): > 300 nM | IC50 (second compound 1 µM): > 300 nM | IC50 (second compound 3.16 µM): > 300 nM | IC50 (second compound 10 µM): > 300 nM | viability, T/C (second compound 0.1 µM, first compound 0.000949 µM): 99.6% | viability, T/C (second compound 0.1 µM, first compound 0.003 µM): 93.5% | viability, T/C [1]: 85.8% | viability, T/C [2]: 90.1% | viability, T/C [3]: 93.8% | viability, T/C [4]: 73% | viability, T/C (second compound 0.316 µM, first compound 0.000949 µM): 95.5% | viability, T/C (second compound 0.316 µM, first compound 0.003 µM): 89.3% | viability, T/C [5]: 89% | viability, T/C [6]: 89.5% | viability, T/C [7]: 97.8% | viability, T/C [8]: 80.1% | viability, T/C (second compound 1 µM, first compound 0.000949 µM): 87.1% | viability, T/C (second compound 1 µM, first compound 0.003 µM): 87.9% | viability, T/C [9]: 86.4% | viability, T/C [10]: 89.2% | viability, T/C [11]: 86.6% | viability, T/C [12]: 78.1% | viability, T/C (second compound 3.16 µM, first compound 0.000949 µM): 92.4% | viability, T/C (second compound 3.16 µM, first compound 0.003 µM): 91.7% | viability, T/C [13]: 84% | viability, T/C [14]: 92.8% | viability, T/C [15]: 87% | viability, T/C [16]: 73.4% | viability, T/C (second compound 10 µM, first compound 0.000949 µM): 89.5% | viability, T/C (second compound 10 µM, first compound 0.003 µM): 81.7% | viability, T/C [17]: 82.9% | viability, T/C [18]: 82.7% | viability, T/C [19]: 82.1% | viability, T/C [20]: 74.5%

COc1cc(C2c3cc4c(cc3C(OC3OC5COC(C)OC5C(O)C3O)C3COC(=O)C23)OCO4)cc(OC)c1O (stereo not given) + NC1CCC(NC2CC2c2ccccc2)CC1
IC50 (second compound 0.1 µM): 153 nM | IC50 (second compound 0.316 µM): 142 nM | IC50 (second compound 1 µM): 137 nM | IC50 (second compound 3.16 µM): 128 nM | IC50 (second compound 10 µM): 130 nM | viability, T/C [1]: 89.8% | viability, T/C [2]: 87.1% | viability, T/C [3]: 57.6% | viability, T/C [4]: 35.6% | viability, T/C (second compound 0.1 µM, first compound 0.949 µM): 18.5% | viability, T/C (second compound 0.1 µM, first compound 3 µM): 9.63% | viability, T/C [5]: 92% | viability, T/C [6]: 86.4% | viability, T/C [7]: 55.4% | viability, T/C [8]: 34.6% | viability, T/C (second compound 0.316 µM, first compound 0.949 µM): 19.5% | viability, T/C (second compound 0.316 µM, first compound 3 µM): 10.1% | viability, T/C [9]: 85.2% | viability, T/C [10]: 81.9% | viability, T/C [11]: 56.9% | viability, T/C [12]: 31.7% | viability, T/C (second compound 1 µM, first compound 0.949 µM): 16.4% | viability, T/C (second compound 1 µM, first compound 3 µM): 8.66% | viability, T/C [13]: 85% | viability, T/C [14]: 84.9% | viability, T/C [15]: 53.6% | viability, T/C [16]: 30.5% | viability, T/C (second compound 3.16 µM, first compound 0.949 µM): 17% | viability, T/C (second compound 3.16 µM, first compound 3 µM): 8.59% | viability, T/C [17]: 78.4% | viability, T/C [18]: 79.7% | viability, T/C [19]: 57.7% | viability, T/C [20]: 26.8% | viability, T/C (second compound 10 µM, first compound 0.949 µM): 15.8% | viability, T/C (second compound 10 µM, first compound 3 µM): 8.09%

O=C(C=Cn1cnc(-c2cc(C(F)(F)F)cc(C(F)(F)F)c2)n1)NNc1cnccn1 + NC1CC1c1ccc(-c2cccc(O)c2)cc1
IC50 (second compound 0.1 µM): 27.8 nM | IC50 (second compound 0.316 µM): 25.3 nM | IC50 (second compound 1 µM): 23.9 nM | IC50 (second compound 3.16 µM): 21.4 nM | IC50 (second compound 10 µM): 23.2 nM | viability, T/C (second compound 0.1 µM, first compound 0.00316 µM): 133% | viability, T/C (second compound 0.1 µM, first compound 0.01 µM): 75.4% | viability, T/C [21]: 44.4% | viability, T/C [22]: 35.1% | viability, T/C [23]: 27.6% | viability, T/C [24]: 16.2% | viability, T/C (second compound 0.316 µM, first compound 0.00316 µM): 121% | viability, T/C (second compound 0.316 µM, first compound 0.01 µM): 75% | viability, T/C [25]: 40.5% | viability, T/C [26]: 32.6% | viability, T/C [27]: 28.2% | viability, T/C [28]: 17.7% | viability, T/C (second compound 1 µM, first compound 0.00316 µM): 121% | viability, T/C (second compound 1 µM, first compound 0.01 µM): 71.1% | viability, T/C [29]: 38.9% | viability, T/C [30]: 34.8% | viability, T/C [31]: 29.3% | viability, T/C [32]: 16.8% | viability, T/C (second compound 3.16 µM, first compound 0.00316 µM): 112% | viability, T/C (second compound 3.16 µM, first compound 0.01 µM): 68.3% | viability, T/C [33]: 36.8% | viability, T/C [34]: 33.5% | viability, T/C [35]: 26.6% | viability, T/C [36]: 18.9% | viability, T/C (second compound 10 µM, first compound 0.00316 µM): 97.8% | viability, T/C (second compound 10 µM, first compound 0.01 µM): 70.3% | viability, T/C [37]: 39.7% | viability, T/C [38]: 33.3% | viability, T/C [39]: 31% | viability, T/C [40]: 20.1%

O=C(c1cc(Cc2n[nH]c(=O)c3ccccc23)ccc1F)N1CCN(C(=O)C2CC2)CC1 + NC1CCC(NC2CC2c2ccccc2)CC1
IC50 (second compound 0.1 µM): > 10000 nM | IC50 (second compound 0.316 µM): > 10000 nM | IC50 (second compound 1 µM): > 10000 nM | IC50 (second compound 3.16 µM): > 10000 nM | IC50 (second compound 10 µM): > 10000 nM | viability, T/C [21]: 89.1% | viability, T/C [22]: 97.5% | viability, T/C [23]: 83.5% | viability, T/C [24]: 83.2% | viability, T/C (second compound 0.1 µM, first compound 3.16 µM): 84.6% | viability, T/C (second compound 0.1 µM, first compound 10 µM): 72.3% | viability, T/C [25]: 98.7% | viability, T/C [26]: 90.8% | viability, T/C [27]: 83.4% | viability, T/C [28]: 84.6% | viability, T/C (second compound 0.316 µM, first compound 3.16 µM): 82.1% | viability, T/C (second compound 0.316 µM, first compound 10 µM): 73.8% | viability, T/C [29]: 94.2% | viability, T/C [30]: 87.3% | viability, T/C [31]: 87.7% | viability, T/C [32]: 93% | viability, T/C (second compound 1 µM, first compound 3.16 µM): 88.1% | viability, T/C (second compound 1 µM, first compound 10 µM): 79.5% | viability, T/C [33]: 89.5% | viability, T/C [34]: 89.8% | viability, T/C [35]: 92% | viability, T/C [36]: 87.7% | viability, T/C (second compound 3.16 µM, first compound 3.16 µM): 79.8% | viability, T/C (second compound 3.16 µM, first compound 10 µM): 76.1% | viability, T/C [37]: 83.3% | viability, T/C [38]: 81.9% | viability, T/C [39]: 86.4% | viability, T/C [40]: 82.6% | viability, T/C (second compound 10 µM, first compound 3.16 µM): 80.8% | viability, T/C (second compound 10 µM, first compound 10 µM): 72.7%

Reference: PubChem BioAssay AID1918943 (Molecular Pharmacology Branch, DTP, NCI, 2023)
